Measured values: the supplement of paper PMC10307832

Columns and labels:
Assay in all cases: relative viability (nuclei count vs DMSO), 5 days (fraction); higher = more cells survive
CUDC-101 + Linsitinib = compound: C#Cc1cccc(Nc2ncnc3cc(OC)c(OCCCCCCC(=O)NO)cc23)c1 [CUDC-101] + C[C@]1(O)C[C@@H](c2nc(-c3ccc4ccc(-c5ccccc5)nc4c3)c3c(N)nccn32)C1 [Linsitinib] (partner 1 µM)
How it was run: (§1)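 The day after seeding in 1536-well plates, lung cancer cell lines were treated by pin tool with a single drug, or with a fixed anchor-drug dose together with five library-drug doses (not always all listed) in √10 steps. After 5 days, a combined fix-and-stain solution (final 0.05% Triton X-100, 1% formaldehyde, 1 ug/ml Hoechst) was added. Nuclei counted on 4× images gave relative viability as treated counts over vehicle counts, reported as the median of duplicate plates.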

NVP-TAE684 + Trametinib = compound: COc1cc(N2CCC(N3CCN(C)CC3)CC2)ccc1Nc1ncc(Cl)c(Nc2ccccc2S(=O)(=O)C(C)C)n1 [NVP-TAE684] + CC(=O)Nc1cccc(-n2c(=O)n(C3CC3)c(=O)c3c(Nc4ccc(I)cc4F)n(C)c(=O)c(C)c32)c1 [Trametinib] (partner 0.02 µM)
How it was run: as §1

Vandetanib + Linsitinib = compound: COc1cc2/c(=N/c3ccc(Br)cc3F)nc[nH]c2cc1OCC1CCN(C)CC1 [Vandetanib] + C[C@]1(O)C[C@@H](c2nc(-c3ccc4ccc(-c5ccccc5)nc4c3)c3c(N)nccn32)C1 [Linsitinib] (partner 1 µM)
How it was run: as §1

[1] = compound: C1=CC=C2C(=C1)N=C(S2)C(C#N)C3=NC(=NC=C3)NCCC4=CN=CC=C4 + Nc1nc2[nH]cc(CCc3ccc(C(=O)N[C@@H](CCC(=O)O)C(=O)O)cc3)c2c(=O)[nH]1 [Pemetrexed] (partner 0.2 µM)
How it was run: as §1

Cell Line	relative viability (CUDC-101 + Linsitinib; first compound 0.01 µM)	relative viability (CUDC-101 + Linsitinib; first compound 0.03162 µM)	relative viability (CUDC-101 + Linsitinib; first compound 0.1 µM)	relative viability (CUDC-101 + Linsitinib; first compound 0.3162 µM)	relative viability (CUDC-101 + Linsitinib; first compound 1 µM)	relative viability (NVP-TAE684 + Trametinib; first compound 0.2 µM)	relative viability (NVP-TAE684 + Trametinib; first compound 0.6325 µM)	relative viability (NVP-TAE684 + Trametinib; first compound 2 µM)	relative viability (Vandetanib + Linsitinib; first compound 0.02 µM)	relative viability (Vandetanib + Linsitinib; first compound 0.06325 µM)	relative viability (Vandetanib + Linsitinib; first compound 0.2 µM)	relative viability (Vandetanib + Linsitinib; first compound 0.6325 µM)	relative viability (Vandetanib + Linsitinib; first compound 2 µM)	relative viability ([1]; first compound 0.005 µM)	relative viability ([1]; first compound 0.01581 µM)	relative viability ([1]; first compound 0.05 µM)	relative viability ([1]; first compound 0.1581 µM)	relative viability ([1]; first compound 0.5 µM)
201T	1.05	0.93	0.978	1.05	0.781	0.712	0.716	0.629	1.08	0.936	0.989	0.944	1.01	0.348	0.337	0.349	0.313	0.357
A549	0.634	0.444	0.537	0.731	0.487	–	–	–	0.718	0.498	0.711	0.587	0.495	–	–	–	–	–
A-427	1.09	1.05	1.05	1.11	1.05	0.699	0.627	0.462	1.05	1.05	1.11	1.04	1.12	0.874	0.94	0.995	1.1	0.975
ABC-1	0.816	0.778	0.601	0.567	0.303	–	–	–	1.03	0.805	1.02	0.849	0.598	–	–	–	–	–
BEN	1.04	0.719	1.12	0.824	0.628	0.983	0.912	–	0.851	0.82	0.869	0.868	0.793	0.751	0.627	0.773	0.883	0.741
CAL-12T	0.914	0.7	0.777	0.924	0.656	0.283	0.251	0.127	0.874	0.774	0.923	0.781	0.647	0.575	1.19	1.11	1.43	0.88
COR-L23	1.25	0.898	0.956	0.736	0.252	0.547	0.484	0.222	0.757	0.688	0.131	0.919	0.955	0.211	0.207	0.187	0.206	0.17
COR-L 105	1.08	0.934	0.921	0.874	0.396	0.439	0.42	0.313	0.891	0.877	0.976	0.54	0.444	0.839	1.24	1.03	1.03	1.02
Calu-6	0.989	0.897	1.04	1.01	0.869	–	–	–	0.939	0.861	0.911	0.975	0.876	–	–	–	–	–
ChaGo-K-1	–	–	–	–	–	0.899	0.843	0.58	–	–	–	–	–	0.249	0.263	0.293	0.255	0.256
EBC-1	0.954	0.904	0.766	0.762	0.623	–	–	–	0.742	0.893	0.958	0.885	0.925	–	–	–	–	–
EKVX	1.17	0.84	0.938	1.07	0.709	0.285	0.241	0.334	1.04	0.948	0.962	0.793	0.493	0.398	0.382	0.39	0.459	0.417
EMC-BAC-2	0.845	0.867	0.852	0.765	0.634	0.89	0.822	0.47	0.792	0.772	0.612	0.77	0.673	0.488	0.442	0.414	0.477	0.429
EPLC-272H	1.25	1.1	1.16	1.05	1.08	0.296	0.25	0.243	1.21	0.971	1.11	1.13	1.18	–	0.255	0.317	0.325	0.326
H3255	1.02	0.751	0.38	0.5	0.203	0.569	0.611	0.631	1.1	0.9	0.949	0.654	0.181	0.568	0.558	0.532	0.622	0.584
HARA	1.01	0.804	0.908	0.512	0.349	0.575	0.69	0.155	1.03	0.749	1.04	0.985	0.989	0.271	0.205	0.259	0.283	0.305
HCC-15	0.786	0.853	0.857	0.954	0.743	0.355	0.418	0.186	0.816	0.804	0.91	0.864	0.849	0.215	0.23	0.223	0.228	0.227
HCC-44	0.549	0.617	0.678	0.675	0.555	0.982	1.08	0.926	0.642	0.64	0.753	0.724	0.688	0.723	0.677	0.668	0.648	0.675
HCC-78	0.438	0.387	0.707	0.42	0.27	0.603	0.57	0.401	0.414	0.438	0.567	0.579	0.337	0.793	0.886	0.92	0.92	0.784
HCC-366	0.658	0.344	0.741	0.607	0.528	0.352	0.374	0.14	0.644	0.488	0.584	0.636	0.526	0.177	0.146	0.145	0.165	0.164
HCC-827	0.965	0.537	0.257	0.203	0.205	0.478	0.529	0.442	0.922	0.941	0.929	0.367	0.198	0.238	0.239	0.25	0.264	0.259

Cell Line	relative viability (CUDC-101 + Linsitinib; first compound 0.01 µM)	relative viability (CUDC-101 + Linsitinib; first compound 0.03162 µM)	relative viability (CUDC-101 + Linsitinib; first compound 0.1 µM)	relative viability (CUDC-101 + Linsitinib; first compound 0.3162 µM)	relative viability (CUDC-101 + Linsitinib; first compound 1 µM)	relative viability (NVP-TAE684 + Trametinib; first compound 0.2 µM)	relative viability (NVP-TAE684 + Trametinib; first compound 0.6325 µM)	relative viability (NVP-TAE684 + Trametinib; first compound 2 µM)	relative viability (Vandetanib + Linsitinib; first compound 0.02 µM)	relative viability (Vandetanib + Linsitinib; first compound 0.06325 µM)	relative viability (Vandetanib + Linsitinib; first compound 0.2 µM)	relative viability (Vandetanib + Linsitinib; first compound 0.6325 µM)	relative viability (Vandetanib + Linsitinib; first compound 2 µM)	relative viability ([1]; first compound 0.005 µM)	relative viability ([1]; first compound 0.01581 µM)	relative viability ([1]; first compound 0.05 µM)	relative viability ([1]; first compound 0.1581 µM)	relative viability ([1]; first compound 0.5 µM)
HOP-62	1.06	0.992	0.842	0.853	0.596	0.404	0.338	0.377	1.04	0.965	0.926	1.05	0.977	0.344	0.337	0.33	0.345	0.351
IA-LM	0.676	0.665	0.365	0.544	0.548	–	–	–	0.616	0.567	0.616	0.593	0.673	–	–	–	–	–
LC-2-ad	0.86	0.846	0.882	0.802	0.472	0.881	0.926	0.669	0.818	0.787	0.841	0.746	0.417	0.259	0.328	0.293	0.271	0.278
LCLC-97TM1	0.211	0.158	0.201	0.166	0.151	0.202	0.219	0.09	0.197	0.171	0.171	0.171	0.136	0.196	0.185	0.181	0.172	0.198
LCLC-103H	1.12	1.11	1.11	1.11	1.15	0.692	0.693	0.603	1.09	1	1.23	0.929	1.03	0.497	0.502	0.458	0.461	0.468
LK-2	0.464	0.561	0.614	0.472	0.25	–	0.673	0.326	1.08	0.513	0.909	0.9	0.319	0.237	0.27	0.295	0.325	0.281
LOU-NH91	0.978	0.634	0.564	0.599	0.453	0.783	0.714	0.626	0.954	0.733	0.679	0.685	0.629	0.403	0.429	0.418	0.375	0.441
LU99A	0.565	0.484	0.482	0.54	0.242	0.579	0.616	0.349	0.487	0.529	0.599	0.522	0.55	0.215	0.214	–	0.193	0.19
LXF-289	0.989	1.04	0.979	0.992	0.781	0.608	0.7	0.624	0.949	0.942	0.957	0.971	0.967	0.832	0.979	0.876	0.912	0.857
NCI-H23	0.667	0.51	0.606	0.661	0.435	0.493	0.333	0.208	0.685	0.531	0.519	0.57	0.425	–	0.511	0.701	0.779	0.641
NCI-H322M	0.882	0.76	0.741	0.803	0.737	0.589	0.447	0.294	0.832	0.841	0.924	0.846	0.894	0.608	0.602	0.569	0.582	0.607
NCI-H522	–	–	–	–	–	0.652	0.776	0.738	–	–	–	–	–	1.22	0.698	1.01	0.807	1.03
NCI-H727	0.204	0.207	0.308	0.396	0.242	0.406	0.349	0.308	0.216	0.336	0.347	0.283	0.271	–	–	–	–	–
NCI-H1299	0.905	0.99	0.936	0.994	0.973	–	–	–	0.912	0.916	0.997	0.957	1	–	–	–	–	–
NCI-H1563	1.22	1.06	1.4	1.18	1.11	–	–	–	1.24	1.06	1.18	1.19	1.11	0.751	0.728	0.696	0.779	0.764
NCI-H1648	–	–	–	–	–	0.395	0.433	0.284	–	–	–	–	–	–	0.682	–	0.673	0.652
NCI-H1650	–	–	–	–	–	0.522	0.507	0.221	–	–	–	–	–	0.382	0.385	0.395	0.353	0.27
NCI-H1703	–	0.559	0.636	1.15	0.745	–	–	–	0.543	0.73	1.14	0.637	0.535	–	–	–	–	–
NCI-H2170	–	–	–	–	–	0.861	0.947	0.916	–	–	–	–	–	0.275	0.26	0.27	0.27	0.274
NCI-H2342	–	–	–	–	–	0.77	0.935	0.638	–	–	–	–	–	0.823	0.716	0.697	0.85	0.81
SW 900	–	–	–	–	–	0.743	0.51	0.594	–	–	–	–	–	0.39	0.471	0.484	0.521	0.482
